Legend:
Assay in all cases: CellTiter-Glo cell viability assay
Type in all cases: cell-based
A204 = details: for IC50: Homo sapiens, A204, RHABDOMYOSARCOMA, Muscle, 72 hours
Protocol: (§1) Cell viability in the presence of varying concentrations of the above listed compounds at different time points was used to assess cytotoxicity and the effect of the compounds on cell proliferation.
(§2) Cell viability was measured by the CellTiter-Glo® cell viability assay from Promega (Madison, Wis.). The CellTiter-Glo® Luminescent Cell Viability Assay is a homogeneous method to determine the number of viable cells in culture based on quantitation of the ATP present, which signals the presence of metabolically active cells. Following treatment, CellTiter-Glo® is added to treatment wells and incubated at 37° C. luminescence values were measured at using a Molecular Devices Spectramax microplate reader
(§3) Cells were grown to 70% confluency, trypsinized, counted, and seeded in 96 well flat-bottom plates at a final concentration of 2.5×10^3-5×10^3 cells/well (Day 0). Cells were allowed to incubate in growth media for 24 hours. Treatment with the test agents or standard agents began on Day 1 and continued for 72 hours. At the 72-hour timepoint, treatment containing media was removed. Viable cell numbers are quantified by the CellTiter-Glo® cell viability assay as described above. Results from these studies were used to calculate an IC50 value (concentration of drug that inhibits cell growth by 50 percent of control) for each compound.
(§4) For single agent and combination studies, data from each experiment was collected and expressed as % Cell Growth using the following calculation: % Cell Growth=(ftest/fvehicle)×100
(§5) Where test is the fluorescence of the tested sample, and fvehicle is the fluorescence of the vehicle in which the drug is dissolved. Dose response graphs and IC50 values were generated using Prism 6 software (GraphPad) using the following equation: Y=(Top-Bottom)/(1+10^((logIC^50^-X)-HillSlope))

A498 = details: for IC50: Homo sapiens, A498, RENAL, RCC-VHL mut, 72 hours
Protocol: as §1, §2, §3, §4, §5

ACHN = details: for IC50: Homo sapiens, ACHN, RENAL, RCC, 72 hours
Protocol: as §1, §2, §3, §4, §5

BT-20 = details: for IC50: Homo sapiens, BT-20, BREAST, Carcinoma, 72 hours
Protocol: as §1, §2, §3, §4, §5

BT474 = details: for IC50: Homo sapiens, BT-474, BT474, BREAST, Ductal Carcinoma, 72 hours
Protocol: as §1, §2, §3, §4, §5

BxPC-3 = details: for IC50: Homo sapiens, BxPC-3, PANCREAS, Pancreatic, 72 hours
Protocol: as §1, §2, §3, §4, §5

Cal-27 = details: for IC50: Homo sapiens, Cal-27, H&N SQUAMOUS CELL, Tongue, 72 hours
Protocol: as §1, §2, §3, §4, §5

DOHH-2 = details: for IC50: Homo sapiens, DOHH-2, HEMATOPIETIC, Lymphoma, 72 hours
Protocol: as §1, §2, §3, §4, §5

FaDu = details: for IC50: Homo sapiens, FaDu, H&N SQUAMOUS CELL, Pharynx, 72 hours
Protocol: as §1, §2, §3, §4, §5

H660 = details: for IC50: NCI-H660, H660, PROSTATE, LN Met, 72 hours
Protocol: as §1, §2, §3, §4, §5

HCC1806 = details: for IC50: Homo sapiens, HCC1806, BREAST, acantholytic squamous cell carcinoma, 72 hours
Protocol: as §1, §2, §3, §4, §5

Hec-1A = details: for IC50: Homo sapiens, Hec-1A, ENDOMETRIAL, 72 hours
Protocol: as §1, §2, §3, §4, §5

Hs695T = details: for IC50: Homo sapiens, Hs 695T, Hs695T, MELANOMA, LN Met, 72 hours
Protocol: as §1, §2, §3, §4, §5

KLE = details: for IC50: Homo sapiens, KLE, ENDOMETRIAL, 72 hours
Protocol: as §1, §2, §3, §4, §5

KMM-1 = details: for IC50: KMM-1, HEMATOPIETIC, MM, 72 hours
Protocol: as §1, §2, §3, §4, §5

KMS-34 = details: for IC50: KMS-34, HEMATOPIETIC, MM, 72 hours
Protocol: as §1, §2, §3, §4, §5

LK-2 = details: for IC50: Homo sapiens, LK-2, LUNG, Carcinoma, 72 hours
Protocol: as §1, §2, §3, §4, §5

MDA-MB-468 = details: for IC50: Homo sapiens, MDA-MB-468, BREAST, TNBC, 72 hours
Protocol: as §1, §2, §3, §4, §5

MOLP-8 = details: for IC50: Homo sapiens, MOLP-8, HEMATOPIETIC, MM, 72 hours
Protocol: as §1, §2, §3, §4, §5

MV411 = details: for IC50: Homo sapiens, MV4-11, MV411, HEMATOPIETIC, AML, 72 hours
Protocol: as §1, §2, §3, §4, §5

N87 = details: for IC50: N87, GASTRIC, Carcinoma, 72 hours
Protocol: as §1, §2, §3, §4, §5

NCI-H209 = details: for IC50: Homo sapiens, NCI-H209, LUNG, Carcinoma, 72 hours
Protocol: as §1, §2, §3, §4, §5

NCI-H226 = details: for IC50: Homo sapiens, NCI-H226, LUNG, Mesothelioma, 72 hours
Protocol: as §1, §2, §3, §4, §5

SUM149PT = details: for IC50: Homo sapiens, SUM149PT, BREAST, IBC, 72 hours
Protocol: as §1, §2, §3, §4, §5

SiHa = details: for IC50: Homo sapiens, SiHa, CERVICAL-SQUAMOUS CELL, 72 hours
Protocol: as §1, §2, §3, §4, §5

SMILES: CC[C@H](C(=O)Nc1ncc(C(=O)NO)s1)c1ccc(OC)cc1 [#1a, (S)—N-hydroxy-2-(2-(4-methoxyphenyl)butanamido)thiazole-5-carboxamide]
- IC50 (A204): 54 nM
- #1/#1a (A204; ratio of IC50, A204): 0.61
- #1b/#1a (A204; ratio of IC50, A204): 3.15
- IC50 (A498): 47 nM
- #1/#1a (A498; ratio of IC50, A498): 1.34
- #1b/#1a (A498; ratio of IC50, A498): 7.49
- IC50 (ACHN): 78 nM
- #1/#1a (ACHN; ratio of IC50, ACHN): 2.94
- #1b/#1a (ACHN; ratio of IC50, ACHN): 9.44
- IC50 (BT-20): 93 nM
- #1/#1a (BT-20; ratio of IC50, BT-20): 2.54
- #1b/#1a (BT-20; ratio of IC50, BT-20): 8.16
- IC50 (BT474): 145 nM
- #1/#1a (BT474; ratio of IC50, BT474): 6.9
- #1b/#1a (BT474; ratio of IC50, BT474): 20.83
- IC50 (BxPC-3): 174 nM
- #1/#1a (BxPC-3; ratio of IC50, BxPC-3): 1.44
- #1b/#1a (BxPC-3; ratio of IC50, BxPC-3): 6.3
- IC50 (Cal-27): 45 nM
- #1/#1a (Cal-27; ratio of IC50, Cal-27): 4.78
- #1b/#1a (Cal-27; ratio of IC50, Cal-27): 10.33
- IC50 (DOHH-2): 17 nM
- #1/#1a (DOHH-2; ratio of IC50, DOHH-2): 0.94
- #1b/#1a (DOHH-2; ratio of IC50, DOHH-2): 7.94
- IC50 (FaDu): 40 nM
- #1/#1a (FaDu; ratio of IC50, FaDu): 0.25
- #1b/#1a (FaDu; ratio of IC50, FaDu): 8.28
- IC50 (H660): 28 nM
- #1/#1a (H660; ratio of IC50, H660): 5.64
- #1b/#1a (H660; ratio of IC50, H660): 15.11
- IC50 (HCC1806): 71 nM
- #1/#1a (HCC1806; ratio of IC50, HCC1806): 2.52
- #1b/#1a (HCC1806; ratio of IC50, HCC1806): 6.55
- IC50 (Hec-1A): 37 nM
- #1/#1a (Hec-1A; ratio of IC50, Hec-1A): 1.51
- #1b/#1a (Hec-1A; ratio of IC50, Hec-1A): 8.35
- IC50 (Hs695T): 52 nM
- #1/#1a (Hs695T; ratio of IC50, Hs695T): 7.15
- #1b/#1a (Hs695T; ratio of IC50, Hs695T): 18.65
- IC50 (KLE): 106 nM
- #1/#1a (KLE; ratio of IC50, KLE): 2.03
- #1b/#1a (KLE; ratio of IC50, KLE): 8.03
- IC50 (KMM-1): 19 nM
- #1/#1a (KMM-1; ratio of IC50, KMM-1): 1.05
- #1b/#1a (KMM-1; ratio of IC50, KMM-1): 5.53
- IC50 (KMS-34): 13 nM
- #1/#1a (KMS-34; ratio of IC50, KMS-34): 1.15
- #1b/#1a (KMS-34; ratio of IC50, KMS-34): 5.15
- IC50 (LK-2): 40 nM
- #1/#1a (LK-2; ratio of IC50, LK-2): 4.9
- #1b/#1a (LK-2; ratio of IC50, LK-2): 9.95
- IC50 (MDA-MB-468): 60 nM
- #1/#1a (MDA-MB-468; ratio of IC50, MDA-MB-468): 1.13
- #1b/#1a (MDA-MB-468; ratio of IC50, MDA-MB-468): 9.17
- IC50 (MOLP-8): 13 nM
- #1/#1a (MOLP-8; ratio of IC50, MOLP-8): 1
- #1b/#1a (MOLP-8; ratio of IC50, MOLP-8): 2.46
- IC50 (MV411): 6 nM
- #1/#1a (MV411; ratio of IC50, MV411): 1.17
- #1b/#1a (MV411; ratio of IC50, MV411): 3.83
- IC50 (N87): 18 nM
- #1/#1a (N87; ratio of IC50, N87): 6.67
- #1b/#1a (N87; ratio of IC50, N87): 18.39
- IC50 (NCI-H209): 16 nM
- #1/#1a (NCI-H209; ratio of IC50, NCI-H209): 6.88
- #1b/#1a (NCI-H209; ratio of IC50, NCI-H209): 15.69
- IC50 (NCI-H226): 200 nM
- #1/#1a (NCI-H226; ratio of IC50, NCI-H226): 2.4
- #1b/#1a (NCI-H226; ratio of IC50, NCI-H226): 8.44
- IC50 (SUM149PT): 74 nM
- #1/#1a (SUM149PT; ratio of IC50, SUM149PT): 2.58
- #1b/#1a (SUM149PT; ratio of IC50, SUM149PT): 8.27
- IC50 (SiHa): 307 nM
- #1/#1a (SiHa; ratio of IC50, SiHa): 1.01
- #1b/#1a (SiHa; ratio of IC50, SiHa): 8.91

SMILES: CC[C@@H](C(=O)Nc1ncc(C(=O)NO)s1)c1ccc(OC)cc1 [#1b, (R)—N-hydroxy-2-(2-(4-methoxyphenyl)butanamido)thiazole-5-carboxamide]
- IC50 (A204): 170 nM
- IC50 (A498): 352 nM
- IC50 (ACHN): 736 nM
- IC50 (BT-20): 759 nM
- IC50 (BT474): 3020 nM
- IC50 (BxPC-3): 1100 nM
- IC50 (Cal-27): 465 nM
- IC50 (DOHH-2): 135 nM
- IC50 (FaDu): 331 nM
- IC50 (H660): 423 nM
- IC50 (HCC1806): 465 nM
- IC50 (Hec-1A): 309 nM
- IC50 (Hs695T): 970 nM
- IC50 (KLE): 851 nM
- IC50 (KMM-1): 105 nM
- IC50 (KMS-34): 67 nM
- IC50 (LK-2): 398 nM
- IC50 (MDA-MB-468): 550 nM
- IC50 (MOLP-8): 32 nM
- IC50 (MV411): 23 nM
- IC50 (N87): 331 nM
- IC50 (NCI-H209): 251 nM
- IC50 (NCI-H226): 1690 nM
- IC50 (SUM149PT): 612 nM
- IC50 (SiHa): 2740 nM

Source: patent publication US11420947B2, “(S)-n-hydroxy-2-(2-(4-methoxyphenyl)butanamido)thiazole-5-carboxamide and pharmaceutically acceptable salts thereof” (TRANSLATIONAL DRUG DEVELOPMENT, LLC, priority 2018, dated 2022)
